Laboratory results: ChEMBL document CHEMBL1201862, “PubChem BioAssay data set” (2004)
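Grown in 96-well plates, cells were treated for 48 hours with each compound at five concentrations. Insufficient inhibition: endpoint recorded as highest concentration tested. Here, GI50 denotes the concentration required for 50% inhibition of growth.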 Activity calls are given as the source filed them. No stated cut-off is given here; in the data, active = GI50 up to about 1.1 µM and inactive = higher.

Tests used:
Experiment in all cases: growth of human tumour cells (NCI), 48 h
OVCAR-3 = system: OVCAR-3
CCRF-CEM = system: CCRF-CEM
Malme-3M = system: Malme-3M
EKVX = system: EKVX
K562 = system: K562
HL-60 = system: HL-60
SNB-75 = system: SNB-75
SK-MEL-5 = system: SK-MEL-5
NCI-H460 = system: NCI-H460
OVCAR-8 = system: OVCAR-8
RPMI-8226 = system: RPMI-8226
IGROV-1 = system: IGROV-1
UACC-62 = system: UACC-62
UACC-257 = system: UACC-257
NCI-H23 = system: NCI-H23
U-251 = system: U-251
SF-295 = system: SF-295
HT-29 = system: HT-29
NCI-H522 = system: NCI-H522
786-0 = system: 786-0

Measured: GI50

S=P1(N2CCCCC2)Oc2ccc3ccccc3c2-c2c(ccc3ccccc23)O1
inactive: OVCAR-3 34.9 µM | CCRF-CEM > 31.6 µM | Malme-3M > 46 µM | EKVX > 53.5 µM | K562 85.7 µM | HL-60 > 100 µM | SNB-75 31.8 µM | SK-MEL-5 > 71.4 µM | NCI-H460 33.6 µM | OVCAR-8 64.4 µM | RPMI-8226 > 91.2 µM | IGROV-1 > 100 µM | UACC-62 94.8 µM | UACC-257 > 100 µM | NCI-H23 > 81.1 µM | U-251 > 65.2 µM | SF-295 53.7 µM | HT-29 > 76.2 µM | NCI-H522 37.8 µM

CCN(CCO)C(=O)C1(c2ccccc2)CCCCC1
inactive: OVCAR-3 > 10 µM | CCRF-CEM > 10 µM | Malme-3M > 10 µM | EKVX > 10 µM | K562 > 10 µM | HL-60 > 10 µM | SNB-75 > 10 µM | SK-MEL-5 > 10 µM | NCI-H460 > 10 µM | OVCAR-8 > 10 µM | RPMI-8226 > 10 µM | IGROV-1 > 10 µM | UACC-62 > 10 µM | NCI-H23 > 10 µM | U-251 > 10 µM | SF-295 > 10 µM | HT-29 > 10 µM | NCI-H522 > 10 µM

Cc1ccc(S(=O)(=O)NC(=O)NC(CCCCNC(=N)N)C(=O)O)cc1 (configuration not stated)
inactive: CCRF-CEM > 100 µM | Malme-3M > 100 µM | K562 > 100 µM | HL-60 > 100 µM | SNB-75 > 100 µM | SK-MEL-5 > 100 µM | NCI-H460 > 100 µM | OVCAR-8 > 100 µM | 786-0 > 100 µM | RPMI-8226 > 100 µM | IGROV-1 > 100 µM | UACC-62 > 100 µM | UACC-257 > 100 µM | NCI-H23 > 100 µM | U-251 > 100 µM | SF-295 > 100 µM | NCI-H522 > 100 µM

CC(C)(C)OC(=O)NC(Cc1ccc(OCc2ccccc2)cc1)C(=O)NC(COCc1ccccc1)C(=O)Oc1c(Cl)c(Cl)c(Cl)c(Cl)c1Cl (configuration not stated)
inactive: OVCAR-3 14.9 µM | CCRF-CEM 55.2 µM | Malme-3M 25.1 µM | EKVX 23.1 µM | K562 > 100 µM | HL-60 59.8 µM | SNB-75 29.6 µM | SK-MEL-5 17.3 µM | NCI-H460 17.6 µM | OVCAR-8 21.5 µM | RPMI-8226 37.7 µM | IGROV-1 15.8 µM | UACC-62 16.2 µM | UACC-257 27.6 µM | NCI-H23 17.2 µM | U-251 18 µM | SF-295 19.2 µM | HT-29 25.6 µM | NCI-H522 22.2 µM

CN1CN(c2ccccc2)C2(CCN(CCCC(=O)c3cccs3)CC2)C1=O
inactive: OVCAR-3 37.2 µM | CCRF-CEM 30.3 µM | Malme-3M 54.1 µM | EKVX 31.5 µM | K562 38.5 µM | HL-60 52.8 µM | SNB-75 > 100 µM | SK-MEL-5 22.9 µM | OVCAR-8 55.8 µM | 786-0 35.6 µM | RPMI-8226 29.8 µM | IGROV-1 41.3 µM | UACC-62 > 100 µM | UACC-257 29 µM | NCI-H23 51.2 µM | U-251 45.7 µM | SF-295 33 µM | HT-29 21.2 µM | NCI-H522 > 100 µM

Cc1nc2ccc(S(=O)(=O)Nc3nccs3)cc2c(=O)n1NS(=O)(=O)c1nccs1
inactive: OVCAR-3 > 100 µM | CCRF-CEM 86.7 µM | Malme-3M > 100 µM | EKVX > 100 µM | K562 69.7 µM | HL-60 79.1 µM | SNB-75 > 100 µM | SK-MEL-5 88.7 µM | NCI-H460 50.2 µM | OVCAR-8 > 100 µM | RPMI-8226 > 100 µM | IGROV-1 > 100 µM | UACC-62 72.9 µM | UACC-257 > 100 µM | NCI-H23 > 100 µM | U-251 > 100 µM | SF-295 58.7 µM | HT-29 41.5 µM | NCI-H522 60.8 µM

Oc1cc(O)c2c(c1)O[C@H](c1ccc(O)c(O)c1)[C@@H](O)C2 [CIANIDANOL]
inactive: OVCAR-3 > 100 µM | CCRF-CEM > 100 µM | Malme-3M > 100 µM | EKVX > 100 µM | K562 > 100 µM | HL-60 > 100 µM | SNB-75 > 100 µM | SK-MEL-5 > 100 µM | NCI-H460 > 100 µM | OVCAR-8 > 100 µM | 786-0 > 100 µM | RPMI-8226 > 100 µM | IGROV-1 > 100 µM | UACC-257 > 100 µM | NCI-H23 > 100 µM | U-251 > 100 µM | SF-295 > 100 µM | HT-29 > 100 µM | NCI-H522 > 100 µM

C=CC[N+]12CN3CN(CN(C3)C1)C2
inactive: OVCAR-3 43.9 µM | CCRF-CEM 5.83 µM | Malme-3M 18.7 µM | EKVX 20.4 µM | K562 19.2 µM | HL-60 35.3 µM | SNB-75 25.1 µM | SK-MEL-5 36.6 µM | NCI-H460 24.2 µM | OVCAR-8 24 µM | RPMI-8226 4.14 µM | IGROV-1 27.4 µM | UACC-62 27.4 µM | UACC-257 24.5 µM | NCI-H23 24.2 µM | U-251 31.9 µM | SF-295 > 100 µM | HT-29 17.9 µM | NCI-H522 14.3 µM

CC1(c2nc3ccccc3[nH]2)CCC(C#N)C(C)(C)O1 (configuration not stated)
inactive: OVCAR-3 > 100 µM | CCRF-CEM > 100 µM | Malme-3M > 100 µM | EKVX > 100 µM | K562 > 100 µM | HL-60 > 100 µM | SNB-75 > 100 µM | SK-MEL-5 > 100 µM | OVCAR-8 > 100 µM | 786-0 > 100 µM | RPMI-8226 > 100 µM | IGROV-1 > 100 µM | UACC-62 > 100 µM | UACC-257 > 100 µM | NCI-H23 > 100 µM | U-251 > 100 µM | SF-295 > 100 µM | HT-29 > 100 µM | NCI-H522 > 100 µM

CC(C(=O)NCCNC(=O)CCC(=O)N(C)O)C(=O)NCCNC(=O)CCC(=O)N(C)O
inactive: OVCAR-3 > 100 µM | CCRF-CEM > 100 µM | Malme-3M > 100 µM | EKVX > 100 µM | K562 > 100 µM | HL-60 > 100 µM | SNB-75 > 100 µM | SK-MEL-5 97.9 µM | NCI-H460 > 100 µM | OVCAR-8 > 100 µM | RPMI-8226 > 100 µM | IGROV-1 > 100 µM | UACC-62 > 100 µM | UACC-257 > 100 µM | NCI-H23 > 100 µM | U-251 > 100 µM | SF-295 > 100 µM | HT-29 > 100 µM | NCI-H522 > 100 µM
